# Measurements as given in ChEMBL document CHEMBL1201862, “PubChem BioAssay data set” (2004).
#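 A five-concentration, 48-hour dose response in 96-well plates underlies each endpoint, interpolated linearly between surrounding concentrations. At the GI50, growth is halved.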 Calls of active or inactive are those of the source. Cut-off read from the data, not from the text of the source: active = GI50 up to about 1.1 µM and inactive = higher.
# Tests used:
# Test in all cases: NCI tumour cell line growth inhibition, 48 h
# NCI-H23 = test system: NCI-H23
# HOP-62 = test system: HOP-62
# SF-268 = test system: SF-268
# SK-MEL-2 = test system: SK-MEL-2
# RXF 393 = test system: RXF 393
# SF-539 = test system: SF-539
# NCI-H460 = test system: NCI-H460
# K562 = test system: K562
# HCC 2998 = test system: HCC 2998
# OVCAR-8 = test system: OVCAR-8
# M14 = test system: M14
# SW-620 = test system: SW-620
# HOP-92 = test system: HOP-92
# OVCAR-5 = test system: OVCAR-5
# RPMI-8226 = test system: RPMI-8226
# UACC-257 = test system: UACC-257
# 786-0 = test system: 786-0
# SF-295 = test system: SF-295
# LOX IMVI = test system: LOX IMVI
# CCRF-CEM = test system: CCRF-CEM
# SK-MEL-5 = test system: SK-MEL-5
# COLO 205 = test system: COLO 205
# DMS-273 = test system: DMS-273
# NCI-H226 = test system: NCI-H226
# IGROV-1 = test system: IGROV-1
# KM-20L2 = test system: KM-20L2
# DLD-1 = test system: DLD-1
# UO-31 = test system: UO-31
# UACC-62 = test system: UACC-62
# TK-10 = test system: TK-10
# XF498 = test system: XF498
# EKVX = test system: EKVX
# MOLT-4 = test system: MOLT-4
# HL-60 = test system: HL-60
# A549 = test system: A549
# LXFL 529 = test system: LXFL 529
# HCT-116 = test system: HCT-116
# SK-MEL-28 = test system: SK-MEL-28
# HT-29 = test system: HT-29
# SNB-78 = test system: SNB-78
# SNB-75 = test system: SNB-75
# DMS-114 = test system: DMS-114
# NCI-H522 = test system: NCI-H522
# SK-OV-3 = test system: SK-OV-3
# Malme-3M = test system: Malme-3M
# U-251 = test system: U-251
# M19-MEL = test system: M19-MEL
# KM12 = test system: KM12
# OVCAR-3 = test system: OVCAR-3
# ACHN = test system: ACHN
# HCT-15 = test system: HCT-15
# SNB-19 = test system: SNB-19
# SN12C = test system: SN12C
# CAKI-1 = test system: CAKI-1
# OVCAR-4 = test system: OVCAR-4
# SR = test system: SR
# A498 = test system: A498
smiles,measurement,setting,value
COC(=O)N/N=C(\C)CC(=O)Nc1cccc([N+](=O)[O-])c1,GI50,NCI-H23,> 100 µM (inactive)
same,GI50,HOP-62,> 100 µM (inactive)
same,GI50,SF-268,> 100 µM (inactive)
same,GI50,SK-MEL-2,> 100 µM (inactive)
same,GI50,RXF 393,> 100 µM (inactive)
same,GI50,SF-539,> 100 µM (inactive)
same,GI50,NCI-H460,> 100 µM (inactive)
same,GI50,K562,> 100 µM (inactive)
same,GI50,HCC 2998,> 100 µM (inactive)
same,GI50,OVCAR-8,> 100 µM (inactive)
same,GI50,M14,> 100 µM (inactive)
same,GI50,SW-620,> 100 µM (inactive)
same,GI50,HOP-92,> 100 µM (inactive)
same,GI50,OVCAR-5,> 100 µM (inactive)
same,GI50,RPMI-8226,> 100 µM (inactive)
same,GI50,UACC-257,> 100 µM (inactive)
same,GI50,786-0,> 100 µM (inactive)
same,GI50,SF-295,> 100 µM (inactive)
same,GI50,LOX IMVI,> 100 µM (inactive)
same,GI50,CCRF-CEM,> 100 µM (inactive)
same,GI50,SK-MEL-5,> 100 µM (inactive)
same,GI50,COLO 205,> 100 µM (inactive)
same,GI50,DMS-273,> 100 µM (inactive)
same,GI50,NCI-H226,> 100 µM (inactive)
same,GI50,IGROV-1,> 100 µM (inactive)
same,GI50,KM-20L2,> 100 µM (inactive)
same,GI50,DLD-1,> 100 µM (inactive)
same,GI50,UO-31,> 100 µM (inactive)
same,GI50,UACC-62,> 100 µM (inactive)
same,GI50,TK-10,> 100 µM (inactive)
same,GI50,XF498,> 100 µM (inactive)
same,GI50,EKVX,> 100 µM (inactive)
same,GI50,MOLT-4,> 100 µM (inactive)
same,GI50,HL-60,> 100 µM (inactive)
same,GI50,A549,> 100 µM (inactive)
same,GI50,LXFL 529,> 100 µM (inactive)
same,GI50,HCT-116,> 100 µM (inactive)
same,GI50,SK-MEL-28,> 100 µM (inactive)
same,GI50,HT-29,> 100 µM (inactive)
same,GI50,SNB-78,> 100 µM (inactive)
same,GI50,SNB-75,> 100 µM (inactive)
same,GI50,DMS-114,> 100 µM (inactive)
same,GI50,NCI-H522,> 100 µM (inactive)
same,GI50,SK-OV-3,> 100 µM (inactive)
same,GI50,Malme-3M,> 100 µM (inactive)
same,GI50,U-251,> 100 µM (inactive)
same,GI50,M19-MEL,> 100 µM (inactive)
same,GI50,KM12,> 100 µM (inactive)
same,GI50,OVCAR-3,> 100 µM (inactive)
Cc1c2n(c3ccccc13)CC1C2N(C)OC1(C)C (stereo unspecified),GI50,NCI-H23,> 100 µM (inactive)
same,GI50,HOP-62,83.8 µM (inactive)
same,GI50,SF-268,> 100 µM (inactive)
same,GI50,SK-MEL-2,> 100 µM (inactive)
same,GI50,SF-539,> 100 µM (inactive)
same,GI50,ACHN,> 100 µM (inactive)
same,GI50,NCI-H460,> 100 µM (inactive)
same,GI50,K562,> 100 µM (inactive)
same,GI50,HCC 2998,> 100 µM (inactive)
same,GI50,OVCAR-8,> 100 µM (inactive)
same,GI50,M14,> 100 µM (inactive)
same,GI50,OVCAR-5,> 100 µM (inactive)
same,GI50,RPMI-8226,> 100 µM (inactive)
same,GI50,UACC-257,> 100 µM (inactive)
same,GI50,786-0,> 100 µM (inactive)
same,GI50,HCT-15,> 100 µM
same,GI50,SF-295,> 100 µM (inactive)
same,GI50,CCRF-CEM,> 100 µM (inactive)
same,GI50,SNB-19,> 100 µM (inactive)
same,GI50,SN12C,> 100 µM (inactive)
same,GI50,SK-MEL-5,> 100 µM (inactive)
same,GI50,COLO 205,> 100 µM (inactive)
same,GI50,DMS-273,> 100 µM (inactive)
same,GI50,NCI-H226,> 100 µM (inactive)
same,GI50,KM-20L2,> 100 µM (inactive)
same,GI50,DLD-1,> 100 µM (inactive)
same,GI50,UO-31,86.7 µM (inactive)
same,GI50,UACC-62,> 100 µM (inactive)
same,GI50,CAKI-1,> 100 µM (inactive)
same,GI50,XF498,> 100 µM (inactive)
same,GI50,EKVX,> 100 µM (inactive)
same,GI50,MOLT-4,> 100 µM (inactive)
same,GI50,A549,> 100 µM (inactive)
same,GI50,OVCAR-4,> 100 µM (inactive)
same,GI50,HCT-116,> 100 µM (inactive)
same,GI50,SK-MEL-28,> 100 µM (inactive)
same,GI50,HT-29,> 100 µM (inactive)
same,GI50,SNB-78,> 100 µM (inactive)
same,GI50,SNB-75,81.5 µM (inactive)
same,GI50,DMS-114,> 100 µM (inactive)
same,GI50,NCI-H522,> 100 µM (inactive)
same,GI50,SK-OV-3,> 100 µM (inactive)
same,GI50,Malme-3M,> 100 µM (inactive)
same,GI50,SR,> 100 µM (inactive)
same,GI50,U-251,> 10 µM (inactive)
same,GI50,M19-MEL,> 100 µM (inactive)
same,GI50,KM12,> 100 µM (inactive)
same,GI50,OVCAR-3,> 100 µM (inactive)
COc1ccc(CCn2c(=O)c3ccccc3n(C)c2=O)cc1,GI50,NCI-H23,48.6 µM (inactive)
same,GI50,HOP-62,26.4 µM (inactive)
same,GI50,SF-268,56.4 µM (inactive)
same,GI50,SK-MEL-2,20.5 µM (inactive)
same,GI50,SF-539,41.6 µM (inactive)
same,GI50,ACHN,> 100 µM (inactive)
same,GI50,NCI-H460,60.1 µM (inactive)
same,GI50,K562,4.21 µM (inactive)
same,GI50,HCC 2998,21 µM (inactive)
same,GI50,OVCAR-8,58.6 µM (inactive)
same,GI50,M14,26.1 µM (inactive)
same,GI50,SW-620,15.9 µM (inactive)
same,GI50,OVCAR-5,> 100 µM (inactive)
same,GI50,RPMI-8226,39 µM (inactive)
same,GI50,UACC-257,61.7 µM (inactive)
same,GI50,786-0,67.1 µM (inactive)
same,GI50,SF-295,30.2 µM (inactive)
same,GI50,CCRF-CEM,23.7 µM (inactive)
same,GI50,SNB-19,> 100 µM (inactive)
same,GI50,SN12C,80.7 µM (inactive)
same,GI50,SK-MEL-5,31 µM (inactive)
same,GI50,COLO 205,13.1 µM (inactive)
same,GI50,IGROV-1,> 100 µM (inactive)
same,GI50,KM-20L2,63.4 µM (inactive)
same,GI50,DLD-1,28.6 µM (inactive)
same,GI50,UO-31,40.4 µM (inactive)
same,GI50,UACC-62,24.2 µM (inactive)
same,GI50,TK-10,54.8 µM (inactive)
same,GI50,CAKI-1,38.5 µM (inactive)
same,GI50,XF498,37.2 µM (inactive)
same,GI50,EKVX,60.4 µM (inactive)
same,GI50,MOLT-4,33.8 µM (inactive)
same,GI50,A549,50.9 µM (inactive)
same,GI50,LXFL 529,26.1 µM (inactive)
same,GI50,OVCAR-4,> 100 µM (inactive)
same,GI50,HCT-116,38.7 µM (inactive)
same,GI50,A498,62.2 µM (inactive)
same,GI50,SK-MEL-28,57.5 µM (inactive)
same,GI50,HT-29,23.3 µM (inactive)
same,GI50,SNB-78,36.5 µM (inactive)
same,GI50,SNB-75,25.9 µM (inactive)
same,GI50,DMS-114,11.2 µM (inactive)
same,GI50,NCI-H522,24.2 µM (inactive)
same,GI50,SK-OV-3,14.6 µM (inactive)
same,GI50,Malme-3M,48 µM (inactive)
same,GI50,U-251,66.8 µM (inactive)
same,GI50,M19-MEL,19.3 µM (inactive)
same,GI50,KM12,8.77 µM (inactive)
same,GI50,OVCAR-3,34.4 µM (inactive)
